Measured values: article PMC5267425, “Identification of small molecule modulators of HIV-1 Tat and Rev protein accumulation” (Retrovirology, 2017)

System: cellular gene expression in HeLa rtTA HIV∆Mls cells

Cc1cc(NCc2cccnc2)n2ncc(-c3ccc(Cl)cc3)c2n1 [Compound 791, 3-(4-chlorophenyl)-5-methyl-N-(3-pyridinylmethyl)pyrazolo[1,5-a]pyrimidin-7-amine]
SETMAR expression fold change: 0.745
SFPQ expression fold change: 0.604
SFRS13A expression fold change: 1.164
SH2D4A expression fold change: 1.164
SH3BGR Mean fold change: 1.680
SHPK expression fold change: 0.869
SIAH1 Mean fold change: 1.613
SIAH2 Mean fold change: 1.494
SIKE1 expression fold change: 1.279
SKA2 expression fold change: 0.700
SLC1A5 Mean fold change: 2.013
SLC6A9 Mean fold change: 1.846
SLC6A15 Mean fold change: 1.859
SLC9A3 Mean fold change: 1.796
SLC10A3 expression fold change: 0.873
SLC16A1 expression fold change: 1.148
SLC22A15 Mean fold change: 2.322
SLC25A23 expression fold change: 0.855
SLC26A11 expression fold change: 1.295
SLC29A1 expression fold change: 0.814
SLC35B3 expression fold change: 1.282
SLC38A6 expression fold change: 1.215
SLC39A6 expression fold change: 1.389
SMARCA1 expression fold change: 0.805
SMARCA5 expression fold change: 0.811
SMARCC1 expression fold change: 0.845
SMC2 expression fold change: 0.736
SMC4 expression fold change: 0.769
SMEK2 expression fold change: 1.332
SMS expression fold change: 0.802
SMTN expression fold change: 0.528
SNAPC5 Mean fold change: 1.498
SNX7 expression fold change: 0.747
SNX10 Mean fold change: 2.399
SOD1 expression fold change: 0.780
SOX12 expression fold change: 0.979
SPCS1 expression fold change: 1.045
SPR expression fold change: 0.726
SPRED2 Mean fold change: 2.080
SPRYD4 expression fold change: 0.835
SPTAN1 expression fold change: 0.613
SQSTM1 expression fold change: 1.336
SRPK1 expression fold change: 1.142
SS18L1 expression fold change: 1.184
SSR4 expression fold change: 1.121
ST5 expression fold change: 0.715
ST6GALNAC4 expression fold change: 1.270
ST7L expression fold change: 1.363
STAG3L4 Mean fold change: 1.432
STAMBP expression fold change: 1.360
STARD4 expression fold change: 0.603
STK24 expression fold change: 1.344
STK36 expression fold change: 1.268
STK38 expression fold change: 0.829
STK40 expression fold change: 1.375
STMN1 expression fold change: 0.737
STX4 expression fold change: 1.358
SUN1 expression fold change: 0.880
SUPT3H expression fold change: 1.089
SUPT16H expression fold change: 1.113
SWAP70 expression fold change: 0.801
SYNPO expression fold change: 0.615
TAB1 expression fold change: 1.071
TADA2B expression fold change: 1.205
TAF1C expression fold change: 1.085
TAF3 expression fold change: 1.132
TAF4B expression fold change: 0.875
TAGLN2 expression fold change: 0.573
TATDN1 Mean fold change: 1.544
TBC1D23 expression fold change: 0.831
TBC1D25 expression fold change: 0.892
TBCCD1 expression fold change: 1.231
TBCD expression fold change: 0.769
TBL1X expression fold change: 1.190
TBX1 expression fold change: 0.707
TCEA1 Mean fold change: 2.377
TCTA expression fold change: 0.691
TEX2 expression fold change: 1.153
TEX261 expression fold change: 0.826
TFAP2A expression fold change: 0.742
TGDS expression fold change: 1.239
TGFA Mean fold change: 2.015
THAP2 Mean fold change: 1.505
TIGD2 expression fold change: 1.326
TIGD6 Mean fold change: 1.617
TIMELESS expression fold change: 1.079
TIMM17B expression fold change: 1.193
TIMP4 Mean fold change: 2.098
TIPRL expression fold change: 1.158
TLE3 expression fold change: 0.824
TM4SF1 expression fold change: 0.658
TM4SF19 Mean fold change: 2.453
TM9SF4 expression fold change: 1.144
TMED9 expression fold change: 0.713
TMEM33 expression fold change: 1.367
TMEM51 expression fold change: 1.103
TMEM55A Mean fold change: 1.593
TMEM68 expression fold change: 1.389
TMEM69 expression fold change: 0.879
TMEM120B expression fold change: 1.358
TMEM126B expression fold change: 1.318
TMEM128 Mean fold change: 1.475
TMEM133 expression fold change: 0.678
TMEM134 expression fold change: 1.333
TMEM136 Mean fold change: 1.653
TMEM138 expression fold change: 1.174
TMEM167B expression fold change: 1.381
TMEM184B expression fold change: 0.777
TMSB10 expression fold change: 0.763
TNKS2 expression fold change: 1.115
TNS3 expression fold change: 0.625
TOM1 expression fold change: 1.142
TOP1 Mean fold change: 1.433
TOP2B expression fold change: 0.838
TOR3A Mean fold change: 2.169
TPD52 expression fold change: 0.814
TPK1 Mean fold change: 1.463
TRAPPC6B Mean fold change: 1.516
TRIB3 Mean fold change: 9.286
TRIM5 expression fold change: 0.541
TRIM8 expression fold change: 1.137
TRIM11 expression fold change: 1.129
TRIM38 expression fold change: 1.268
TRIP12 expression fold change: 0.897
TRIP13 expression fold change: 0.826
TRMT2A expression fold change: 1.232
